Assay results as given in patent US6172262A, “Amphiphilic agents for membrane protein solubilization” (priority 1999, dated 2001).
≈ marks a conversion by molar mass, not a printed value. Where “and” joins values, the source holds several entries; their conditions need not be identical. Equal values may be shown once. Entries after “also recorded” stand apart in the source; their conditions may differ.

Columns and labels:
Bacteriorhodopsin (BR) = molecular target: T1, Bacteriorhodopsin (BR) (Halobacterium salinarum, UniProt P02945); assay: Solubilization of bacteriorhodopsin (BR) from purple membrane (PM)
T1 construct: We used BR solubilization from the PM to evaluate tripod detergents; endogenous in cells
T1 sequence (P02945 14-261 limits assumed): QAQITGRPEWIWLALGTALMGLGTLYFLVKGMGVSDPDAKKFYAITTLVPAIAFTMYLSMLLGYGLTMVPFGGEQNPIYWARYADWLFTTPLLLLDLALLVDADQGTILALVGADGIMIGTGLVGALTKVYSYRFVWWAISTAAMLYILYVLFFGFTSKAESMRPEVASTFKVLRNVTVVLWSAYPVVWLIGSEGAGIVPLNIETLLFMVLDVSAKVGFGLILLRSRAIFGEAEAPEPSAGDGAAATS
Description: We used BR solubilization from the PM to evaluate tripod detergents synthesized using the modular synthetic approach described above. The retinal chromophore of BR allowed us to quantify solubilized material by UV. Solubilized BR is defined as the intact protein left in the supernatant after a sample is centrifuged for 30 minutes at 300,000 g. The percent BR solubilized is determined by dividing the absorbance of the supernatant by the absorbance of the solution before centrifugation.
Solubilization experiments were conducted by making a series of solutions with constant concentration of PM and varying the concentration of detergent. […] The absorbance at the λmax (between 540 nm and 570 nm) was then measured, and immediately afterward the samples were centrifuged for 30 minutes at 300,000 g. The supernatant was carefully removed so as not to disturb pelleted material. Absorbance measurements were made again, and the ratio of the supernatant absorbance to the absorbance before centrifugation provided the percent solubilization.

Aqueous solubility = assay type: physicochemical; settings: for solubility on adding small amounts of ethanol or ethyl acetate: aqueous suspensions plus ethanol or ethyl acetate
[1] = CMC by uptake of fluorescent dye 1,6-diphenylhexatriene, fluorescence spectroscopy; assay type: physicochemical; settings: for CMC of N-oxide relative to corresponding hydrochloride salt: 4.65 vs 4.78, 4.66 vs 4.79; for CMC (Critical Micelle Concentration): uptake of 1,6-diphenylhexatriene, 25 mM sodium phosphate pH 6.9, Table 1 and text; for CMC: Table 2, dye uptake versus concentration monitored by fluorescence spectroscopy
Description: The CMCs of detergents 4.65-4.72 were determined by monitoring the uptake of a fluorescent dye (1,6-diphenylhexatriene) with increasing detergent concentration (Table 1, CMC's determined by dye uptake versus concentration monitored by fluorescence spectroscopy). The CMCs of N-oxide isomers 4.65, 4.67, and 4.68 are very similar: 3 mM, 3 mM, and […], respectively. […] The CMCs for the N-oxides 4.65 and 4.66 are twice the CMCs of the corresponding hydrochloride salts (4.78 and 4.79). The hydrochloride salts were formed from the amine precursors to the N-oxides. Most cationic detergents have CMCs that are much higher than non-ionic or zwitterionic analogs. For example, dodecylammonium bromide has a CMC of 15 mM which is >7 times larger than the CMC of the N-oxide analog (LDAO, CMC=2 mM).
The CMCs of 4.100 and 4.104 were determined by the uptake of the fluorescent dye 1,6-diphenylhexatriene. The CMCs are 0.125 mM and 0.700 mM respectively. These values are substantially lower than the CMC of 4.65, which was determined to be 3 mM.
The CMC of a detergent can be determined experimentally by measuring the solubilization of a water-insoluble dye or fluorophore while varying the concentration of detergent. CMC may also be determined by measuring the diminution of the surface tension of an aqueous solution as a function of detergent concentration. (CMC's determined by either method correlate with each other.) The CMC is determined by extrapolating the plot of solubilization vs. concentration (or surface tension vs. concentration) in the two linear regions above and below the CMC. Where the two lines intersect is the CMC. In this Example, CMC's were determined by the method of Nugebauer, J. M. (1990), Methods in Enzymology, 182:239-253:
Tripod solutions in aqueous solutions containing 25 mM sodium phosphate pH 6.9 were prepared and transferred to screw-capped vials, and […] of a 1,6-diphenylhexatriene solution (DPH, 3.125 mM DPH in THF) was added. The solutions were vortexed at room temperature for 30 seconds. The solutions were placed into a 3 mm×3mm quartz cell and the fluorescence spectrum was obtained (excitation 358 nm, emission 430 nm, excitation slit width=1 mm, emission slit width=20 nm, PMT voltage=700). The fluorescence intensity of each sample was plotted against amphiphile concentration. […] The data points immediately surrounding the CMC were not considered due to non-linear behavior. See Tables 1 and 2, above, for the results.

BR = assay: Loss of exciton coupling of BR by CD spectra (rate of solubilization); set-up: species or system Halobacterium; settings: room temperature
Description: Tripod detergents 4.65 and 4.66 were tested in this fashion and shown to solubilize BR from the PM quite rapidly. To measure whether the solublized BR was present in a monomeric state, CD spectra of the supernatants were taken. When suspended within the native PM, BR yields a distinct sigmoidal CD spectrum due to exciton coupling between adjacent retinal chromophores. It has been shown that the strength of the exciton coupling is directly proportional to the concentration of retinal chromophore in the PM. Because the exciton coupling requires retinals to be held in a fixed geometry (as when suspended in the PM), the solubilization of BR can be measured in terms of the loss of exciton coupling. […] Exciton coupling was completely gone after less than 10 minutes for samples solubilized by 4.65 and 4.66, a time period which is faster than the time required to obtain a CD spectrum.

| Compound | CMC (Critical Micelle Concentration) [1] | CMC [1] | other results |
| --- | --- | --- | --- |
| CCCCC(CCCC)(CCOC1O[C@H](CO)[C@@H](O[C@H]2O[C@H](CO)[C@@H](O)[C@H](O)[C@H]2O)[C@H](O)[C@H]1O)c1ccccc1 (stereo partly shown) [A.2.5] | – | – | BR solubilized from the purple membrane (Bacteriorhodopsin (BR)): approximately 50%; solubility in water (in words) (Aqueous solubility; water): sparingly soluble in water |
| CCCCC(CCCC)(CC(=O)N(CC[N+](C)(C)[O-])CC[N+](C)(C)[O-])c1ccccc1 [Detergent 4.37] | – | – | BR solubilization (Bacteriorhodopsin (BR); after mixing for approximately 20 hrs): greater than 90%; BR solubilization (Bacteriorhodopsin (BR); first batch (about twice as much impurity 4.63)): > 90%; BR solubilization (Bacteriorhodopsin (BR); second batch): < 50% and 50% |
| CCCCCCC(CCCC)(CCCC)CC(=O)N(CC[N+](C)(C)[O-])CC[N+](C)(C)[O-] [Detergent 4.39] | – | – | BR solubilization (Bacteriorhodopsin (BR); after 11 days): approximately 30% |
| CCCCCCC(CC(=O)N(CC[N+](C)(C)[O-])CC[N+](C)(C)[O-])(c1ccccc1)c1ccccc1 [Detergent 4.55] | – | – | BR solubilization (in words) (Bacteriorhodopsin (BR)): readily solubilize BR |
| CCCCC(CC(=O)N(CC[N+](C)(C)[O-])CC[N+](C)(C)[O-])(C1CCCCC1)C1CCCCC1 [Detergent 4.56] | – | – | BR solubilization (in words) (Bacteriorhodopsin (BR)): readily solubilize BR |
| CC(C)(C)c1ccc(C(CC(=O)N(CC[N+](C)(C)[O-])CC[N+](C)(C)[O-])(c2ccc(C(C)(C)C)cc2)c2ccc(C(C)(C)C)cc2)cc1 [Detergent 4.59] | – | – | solubility on adding small amounts of ethanol or ethyl acetate (Aqueous solubility): greatly increased; solubility in water (in words) (Aqueous solubility; water): insoluble in water |
| C[N+](C)([O-])CCN(CC[N+](C)(C)[O-])C(=O)CC(c1ccc(-c2ccccc2)cc1)(c1ccc(-c2ccccc2)cc1)c1ccc(-c2ccccc2)cc1 [Detergent 4.62] | – | – | solubility on adding small amounts of ethanol or ethyl acetate (Aqueous solubility): greatly increased; solubility in water (in words) (Aqueous solubility; water): insoluble in water |
| CCCCC(CCCC)(CC(=O)N(CC)CC[N+](C)(C)[O-])c1ccccc1 [Detergent 4.65] | 3 mM | – | CMC of N-oxide relative to corresponding hydrochloride salt [1]: twice; BR solubilization (in words) (Bacteriorhodopsin (BR)): can solubilize BR; BR solubilization (Bacteriorhodopsin (BR); >99% pure by HPLC): greater than 90%; rate of BR solubilization (in words) (BR): quite rapidly; also recorded: too rapid to monitor the loss of exciton coupling; time to complete loss of exciton coupling (BR): less than 10 minutes |
| CCCCC(CCCC)(CC(=O)NCCC[N+](C)(C)[O-])c1ccccc1 [Detergent 4.66] | 4.5 mM | – | CMC of N-oxide relative to corresponding hydrochloride salt [1]: twice; BR solubilization (in words) (Bacteriorhodopsin (BR)): readily solubilize BR; also recorded: can solubilize BR; rate of BR solubilization (in words) (BR): quite rapidly; also recorded: too rapid to monitor the loss of exciton coupling; time to complete loss of exciton coupling (BR): less than 10 minutes |
| CCCCC(CCCC)(CC(=O)N(C)CCC[N+](C)(C)[O-])c1ccccc1 [Detergent 4.67] | 3 mM | – | – |
| CCCCC(CCCC)(CC(=O)NC(C)(C)C[N+](C)(C)[O-])c1ccccc1 [Detergent 4.68] | 1.2 mM | – | – |
| CCCCC(CCCC)(CC[N+](C)(C)[O-])c1ccccc1 [Detergent 4.69] | 2.5 mM | – | – |
| CCCCC(CCCC)(CC(=O)NCC(C)(C)C[N+](C)(C)[O-])c1ccccc1 [Detergent 4.70] | 7.5 mM | – | CMC of 4.70 relative to that of 4.68 [1]: six times larger |
| CCCCC(CCCC)(CC(=O)N(CCC[N+](C)(C)[O-])CCC[N+](C)(C)[O-])c1ccccc1 [Detergent 4.71] | 10 mM | – | – |
| CCCCC(CCCC)(CC(=O)NCCCN(C)C)c1ccccc1 [Detergent 4.79] | 2.8 mM | – | – |
| CCCCC(CCCC)(CC(=O)NC(C)(C)CN(C)C)c1ccccc1 [Detergent 4.81] | Does not take up dye up to solubility limit | – | solubility (Aqueous solubility; water, Table 1, no dye uptake up to this limit, read-out: solubility limit): ~12.5 mM (≈ 4510 µg/mL) |
| CCCCC(CCCC)(CCN(C)C)c1ccccc1 [Detergent 4.82] | 5 mM | – | – |
| CCCCC(CCCC)(CC(=O)NCC(C)(C)CN(C)C)c1ccccc1 [Detergent 4.83] | 14.7 mM | – | – |
| CN(C)CCCN(CCCN(C)C)C(=O)CC(c1ccc(-c2ccccc2)cc1)(c1ccc(-c2ccccc2)cc1)c1ccc(-c2ccccc2)cc1 [Detergent 4.90] | – | insol. | – |
| CN(C)CCCN(CCCN(C)C)C(=O)CC(c1ccc(C(C)(C)C)cc1)(c1ccc(C(C)(C)C)cc1)c1ccc(C(C)(C)C)cc1 [Detergent 4.91] | – | insol. | – |
| CCCCCCCCCCc1ccc(C(=O)N(CC)CC[N+](C)(C)[O-])cc1 [Detergent 4.100] | 0.125 mM | – | – |
| CCCCC(C)(CCCC)c1ccc(C(=O)N(CC)CC[N+](C)(C)[O-])cc1 [Detergent 4.104] | 0.700 mM | – | – |

Further lines, with some results ahead:

| CMC (Critical Micelle Concentration) [1] | CMC [1] | Compound | other results |
| --- | --- | --- | --- |
| 1.3 mM | – | CCCCC(CCCC)(CC(=O)N(CC)CCN(C)C)c1ccccc1 [Detergent 4.78] | – |
| 5 mM | – | CCCCC(CCCC)(CC(=O)N(C)CCCN(C)C)c1ccccc1 [Detergent 4.80] | – |
| 24 mM | 24 mM | CCCCC(CCCC)(CC(=O)N(CCCN(C)C)CCCN(C)C)c1ccccc1 [Detergent 4.84] | – |
| – | 80 mM | CN(C)CCCN(CCCN(C)C)C(=O)CC1(c2ccccc2)CCCCCCC1 [Detergent 4.85] | – |
| – | 21 mM | CCCCC(CC(=O)N(CCCN(C)C)CCCN(C)C)(c1ccccc1)c1ccccc1 [Detergent 4.86] | – |
| – | 4 mM | CCCCCCC(CC(=O)N(CCCN(C)C)CCCN(C)C)(c1ccccc1)c1ccccc1 [Detergent 4.87] | – |
| – | 30 mM | CN(C)CCCN(CCCN(C)C)C(=O)CC(c1ccccc1)(c1ccccc1)c1ccccc1 [Detergent 4.88] | – |
| – | 3 mM | CN(C)CCCN(CCCN(C)C)C(=O)CC(c1ccccc1)(c1ccccc1)c1ccc(C(C)(C)C)cc1 [Detergent 4.89] | – |
| – | 1 mM | CCCCCCC(CCCC)(CCCC)CC(=O)N(CCCN(C)C)CCCN(C)C [Detergent 4.92] | – |
| – | 6 mM | CCCCC(CCCC)(CCCC)CC(=O)N(CCCN(C)C)CCCN(C)C [Detergent 4.93] | – |
| – | 3 mM | CCCCC(CC(=O)N(CCCN(C)C)CCCN(C)C)(C1CCCCC1)C1CCCCC1 [Detergent 4.94] | – |
| – | 24 mM | CN(C)CCCN(CCCN(C)C)C(=O)CC1(C2CCCCC2)CCCCCCC1 [Detergent 4.95] | – |
| – | 4.6 mM | CCCCC(CCCC)(CC(=O)N(CCCN(C)C)CCCN(C)C)C1CCCCC1 [Detergent 4.96] | – |
